{"source": "paper PMC6570783", "about": "“The Novel C5aR Antagonist DF3016A Protects Neurons Against Ischemic Neuroinflammatory Injury” (Neurotoxicity Research, 2019)", "key": {"[1]": {"target": "C5aR (Homo sapiens, UniProt P21730)", "sequence (P21730 whole entry)": "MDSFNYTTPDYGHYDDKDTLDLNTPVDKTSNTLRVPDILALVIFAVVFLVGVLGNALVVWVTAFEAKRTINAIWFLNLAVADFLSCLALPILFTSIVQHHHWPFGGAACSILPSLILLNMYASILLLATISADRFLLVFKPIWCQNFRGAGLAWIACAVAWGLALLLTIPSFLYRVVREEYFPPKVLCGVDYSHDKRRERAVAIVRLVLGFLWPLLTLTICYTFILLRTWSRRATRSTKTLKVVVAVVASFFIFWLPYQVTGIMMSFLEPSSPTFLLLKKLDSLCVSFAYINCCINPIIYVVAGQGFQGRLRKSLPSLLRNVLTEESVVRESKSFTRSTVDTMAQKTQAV", "details": "read-out: IC50, inhibition of C5a-induced human PMN migration; human PMNs, 10 nM C5a", "description": "(§1) Migration of human, rat, and mouse PMNs was evaluated using a 48-well micro-chemotaxis chamber, as previously described (Bertini et al. [2004]). […] Fifty microliters of cell suspension (1.5 × 10^6/ml for human PMNs, 3.0 × 10^6/ml for rat and mouse PMNs) pre-incubated at 37 °C for 15 min in the presence or absence of different concentrations of DF3016A or vehicle was seeded in the upper compartment. The chamber was incubated at 37 °C in air with 5% CO2 for 45 min. At the end of incubation, filters containing migrated cells were removed, fixed, and stained with Diff-Quik, and five oil immersion fields at high magnification (×100; Zeiss microscope) were counted after sample coding."}, "[2]": {"target": "mouse C5aR (Mus musculus, UniProt P30993)", "sequence (P30993 whole entry)": "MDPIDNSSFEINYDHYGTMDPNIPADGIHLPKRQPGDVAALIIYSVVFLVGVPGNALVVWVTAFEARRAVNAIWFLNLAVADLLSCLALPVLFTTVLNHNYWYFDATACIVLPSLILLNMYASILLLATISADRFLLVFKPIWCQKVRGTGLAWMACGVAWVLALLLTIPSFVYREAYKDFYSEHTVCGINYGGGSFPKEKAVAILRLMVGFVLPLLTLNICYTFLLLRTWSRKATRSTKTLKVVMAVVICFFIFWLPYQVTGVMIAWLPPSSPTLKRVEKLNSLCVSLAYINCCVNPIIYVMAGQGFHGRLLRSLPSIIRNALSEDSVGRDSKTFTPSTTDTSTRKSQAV", "details": "read-out: IC50, mouse C5aR (C5a-induced PMN migration); mouse PMNs, 10 nM mC5a", "description": "(§2) Murine and rat PMNs were isolated from peritoneal cavities injected with 1.5 ml of 3% thioglycolate in saline to male Balb/c mice (20–25 g and 7–9 weeks of age, provided by Charles River, Calco, Italy) or with […] of 3% thioglycolate in saline to SD rat (370–450 g and 3–4 months of age provided by Charles River, UK). Four hours after injection, the animals were sacrificed by decapitation and peritoneal cavities were washed with saline. PMNs were recovered and centrifuged at 600×g for 10 min. The pellet was resuspended in Hank’s Balanced Salt Solution (HBSS); then the cells were counted using Türk’s solution and diluted at 3 × 10^6 cells/ml.\nas §1"}, "[3]": {"target": "rat C5aR (Rattus norvegicus, UniProt P97520)", "sequence (P97520 whole entry)": "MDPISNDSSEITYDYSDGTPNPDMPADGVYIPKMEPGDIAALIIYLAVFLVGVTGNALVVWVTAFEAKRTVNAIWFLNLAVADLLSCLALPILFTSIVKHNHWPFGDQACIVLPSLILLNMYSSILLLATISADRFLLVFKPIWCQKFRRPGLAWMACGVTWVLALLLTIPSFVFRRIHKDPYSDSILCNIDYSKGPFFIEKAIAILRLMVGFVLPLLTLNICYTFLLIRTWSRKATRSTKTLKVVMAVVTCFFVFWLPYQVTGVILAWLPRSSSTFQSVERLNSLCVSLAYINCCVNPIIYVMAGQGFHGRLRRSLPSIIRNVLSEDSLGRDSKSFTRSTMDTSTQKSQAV", "details": "read-out: IC50, rat C5aR (C5a-induced PMN migration); rat PMNs, 10 nM rC5a", "description": "as §2, §1"}, "[4]": {"test_system": "spontaneous cell migration", "assay": "Spontaneous PMN migration", "format": "cell-based"}, "[5]": {"test_system": "PMN migration induced by CXCL8", "assay": "CXCL8-induced PMN migration", "format": "cell-based", "details": "up to 10 μM"}, "[6]": {"test_system": "PMN migration induced by CXCL1", "assay": "CXCL1-induced PMN migration", "format": "cell-based", "details": "up to 10 μM"}, "[7]": {"test_system": "PMN migration induced by CCL3", "assay": "CCL3-induced PMN migration", "format": "cell-based", "details": "up to 10 μM"}, "[8]": {"test_system": "PMN migration induced by fMLP", "assay": "fMLP-induced PMN migration", "format": "cell-based", "details": "up to 10 μM"}, "[9]": {"test_system": "PMN migration induced by CXCL12", "assay": "CXCL12-induced PMN migration", "format": "cell-based", "details": "up to 10 μM"}, "[10]": {"test_system": "LPS-induced PGE2 accumulation", "assay": "LPS-induced PGE2 production in peritoneal murine macrophages", "format": "cell-based, mouse", "details": "up to 10 μM, LPS 1 μg/ml, 24 h", "description": "Cells were placed at 1 × 10^6 ml^−1 in 96-well plates and non-adherent cells removed by gentle washing 2 h later. DF3016A was then added to adherent macrophages 20 min before adding lipopolysaccharide (LPS) (1 μg ml^−1). Control cells received vehicle at the appropriate dilution. Total prostaglandin E2 (PGE2) production was determined in the supernatant 24 h after LPS stimulation. PGE2 levels were measured by Enzyme Immunoassay (EIA) Kit (sensitivity 2.5 pg per well)."}, "[11]": {"test_system": "panel of GPCRs, enzymes, ion channels, transporters, and nuclear receptors (44 targets)", "assay": "SafetyScreen44 Panel radioligand binding (Eurofins Cerep)", "details": "10 μM, triplicate", "description": "DF3016A was tested in the SafetyScreen44 Panel performed at Eurofins Cerep SA (France) by radio ligand binding assays to assess the off-target activities towards a panel of GPCRs, enzymes, ion channels, transporters, and nuclear receptors. All selected targets are recommended by four major pharmaceutical companies (Bowes et al. [2012]). The compound was tested at a single concentration of 10 μM in triplicate.\nDF3016A was dissolved in dimethyl sulfoxide (DMSO) to achieve 10 mM stock solution that was diluted with water/HBSS to a final concentration of 10 μM. Cell membrane homogenates (48 μg protein) were incubated for 60 min at 22 °C with the respective reference compound in the absence or presence of the test compound in a buffer containing 50 mM Tris-HCl (pH 7.4), 2 mM MgCl2, and 1 mM ethylene-diamine-tetra-acetic acid (EDTA). After incubation, the samples were filtered rapidly under vacuum through glass fiber filters (GF/B, Packard Instruments, Meriden, CT, USA) presoaked with 0.3% polyethyleneimine (PEI), and rinsed several times with ice-cold 50 mM Tris-HCl using a 96-sample cell harvester (Unifilter, Packard Instruments). The filters were dried, then counted for radioactivity in a scintillation counter (Topcount, Packard Instruments) using a scintillation cocktail (Microscint-O, Packard Instruments)."}, "[12]": {"assay": "Rat plasma protein binding (rPPB)", "format": "in vitro ADME"}, "[13]": {"assay": "Rat brain tissue binding (rBTB)", "format": "in vitro ADME"}, "[14]": {"assay": "Rat oral pharmacokinetics", "format": "in vivo"}, "[15]": {"test_system": "cortical neurons exposed to OGD/R", "details": "500 nM, 1 h OGD, 3 to 48 h of reperfusion", "description": "DF3016A (500 nM) was added to the cortical neurons which were exposed to O2 and glucose deprivation with glucose-free Neurobasal in Hypoxia Chamber for Cell Culture (BioSpherix) at 5% CO2 atmosphere-[…]. O2 concentration was monitored by using a ProOx sensor controller, and the 0.03% O2 value was considered acceptable. Cells were incubated in this anaerobic chamber for 1 h and then removed from the anaerobic environment. […] Cells of control group were treated identically except that they were not exposed to OGD/R."}, "[16]": {"test_system": "cortical neurons exposed to OGD/R", "assay": "AO/ET staining of live and dead neurons after OGD/R", "format": "cell-based, rat", "details": "500 nM, OGD/R 3 h"}, "[17]": {"test_system": "Ca2+ influx in OGD/R neurons", "assay": "Fluo-4 NW calcium assay in OGD/R neurons", "format": "cell-based, rat", "details": "500 nM, P < 0.001 OGD/R-DF vs OGD/R-UT", "description": "Neuronal cells, grown on 96-well plates, were exposed to OGD/R and treated with 500 nM of DF3016A; growth media were removed, and 100 μl of the dye loading solution (F36206 Fluo-4 NW Calcium Assay Kit, Invitrogen) was added carefully to each well. Plates were incubated at 37 °C for 30 min and then at room temperature for an additional 30 min. […] Data were presented as the ratio between Ca^++ influx and neuronal viability."}, "[18]": {"test_system": "C5aR gene expression", "assay": "C5aR gene expression (qRT-PCR) in OGD/R neurons", "format": "cell-based, rat", "details": "500 nM", "description": "(§3) The total RNA, including microRNA (miRNA), from cells in cultures were extracted with Ribospin Kit (GenaAll) followed by Riboclear Plus Kit (GenaAll) to remove residual DNA according to the manufacturer’s protocols.\n(§4) Total mRNA transcription (2μg/20 μl) was performed using High Capacity cDNA Reverse Transcription Kit (Applied Biosystems) and reverse transcription for MicroRNA (10 ng/15 μl) was performed using TaqMan MicroRNA Reverse Transcription Kit (Applied Biosystems).\n(§5) The qPCR 20 μl/reactions for miR-181a (assay ID: hsa-miR-181a) and C5aR (assay ID: Rn02134203_s1) were conducted in triplicate using TaqMan® MicroRNA Assay Kit and TaqMan® Gene Expression Assays protocol (Applied Biosystems), respectively, following the manufacturer’s instructions. Reactions were performed using a Step One Plus Applied Biosystems thermocycler (Life Technologies) with the default protocol. Briefly, for each reaction 40 cycles of amplification with the following profile were performed: 95 °C for 10 min for the first cycle, followed by 40 cycles of 95 °C for 15 s, and 60 °C for 1 min.\n(§6) Relative intensity of PCR-specific amplicons was calculated using the 2^−ΔΔCt method (Livak and Schmittgen [2001]). Beta-actin (assay ID: Rn00667869_m1) and U6 (assay ID: 001973) small nuclear RNA (snRNA) (Han et al. [2015]) were used as internal control to normalize the level of each transcript."}, "[19]": {"test_system": "C5a protein level", "assay": "C5a protein release (ELISA) in OGD/R neurons", "format": "cell-based, rat", "details": "500 nM", "description": "(§7) Quantitative measurements of cellular proteins (C5a, TNF-α, IL-1β, and IL-6) in cell culture supernatants were determined by ELISA methods using Rat IL-6, Mouse TNFα, Rat IL-1β PicoKine™ ELISA Kits (Boster Biological Technology) and Rat C5a ELISA Kit (Elabscience Biotechnology Inc.) according to the manufacturer’s instructions. All tests were performed in triplicate."}, "[20]": {"test_system": "TNF-α", "assay": "TNF-α release (ELISA) in OGD/R neurons", "format": "cell-based, rat", "details": "500 nM", "description": "as §7"}, "[21]": {"test_system": "IL-1β", "assay": "IL-1β release (ELISA) in OGD/R neurons", "format": "cell-based, rat", "details": "500 nM", "description": "as §7"}, "[22]": {"test_system": "miR-181a", "assay": "miR-181a expression (qPCR) in OGD/R neurons", "format": "cell-based, rat", "details": "500 nM, P < 0.001 OGD/R-DF vs OGD/R-UT", "description": "as §3, §4, §5, §6"}, "[23]": {"details": "rat, in vivo, po, 30 mg/kg"}, "[24]": {"test_system": "primary rat cortical neurons", "assay": "Neuronal viability (MTS), toxicity of DF3016A"}}}
{"smiles": "CC(c1ccc(Nc2nc(C(F)(F)F)cs2)cc1)c1nnn[nH]1", "note": "(stereo not shown) [DF3016A]", "values": [{"measurement": "IC50", "setting": "[1]", "result": 50, "unit": "nM"}, {"measurement": "IC50", "setting": "[2]", "result": 37, "unit": "nM"}, {"measurement": "IC50", "setting": "[3]", "result": 45, "unit": "nM"}, {"measurement": "Inhibition of spontaneous cell migration per se", "setting": "[4]", "result": "did not inhibit"}, {"measurement": "Effect on PMN migration induced by CXCL8", "setting": "[5]", "result": "no effect"}, {"measurement": "Effect on PMN migration induced by CXCL1", "setting": "[6]", "result": "no effect"}, {"measurement": "Effect on PMN migration induced by CCL3", "setting": "[7]", "result": "no effect"}, {"measurement": "Effect on PMN migration induced by fMLP", "setting": "[8]", "result": "no effect"}, {"measurement": "Effect on PMN migration induced by CXCL12", "setting": "[9]", "result": "no effect"}, {"measurement": "Effect on LPS-induced PGE2 accumulation", "setting": "[10]", "result": "no effect"}, {"measurement": "Inhibition of the assayed receptors (off-target activities, 44 targets)", "setting": "[11]", "result": "did not show any inhibition"}, {"measurement": "rPPB Fu (free plasma fraction)", "setting": "[12]", "result": 0.7, "unit": "%"}, {"measurement": "rBTB Fu (free brain fraction)", "setting": "[13]", "result": 7.7, "unit": "%"}, {"measurement": "Oral t1/2", "setting": "[14]", "result": 6.1, "unit": "h"}, {"measurement": "Rat bioavailability", "setting": "[14]", "result": 69, "unit": "%"}, {"measurement": "Effect on OGD/R-induced cell death (MTS)", "setting": "[15]", "result": "significantly attenuated OGD/R-induced cell death"}, {"measurement": "Neuronal death by AO/ET staining", "setting": "[16]", "result": "close to that of control"}, {"measurement": "Ca2+ influx in OGD/R neurons", "setting": "[17]", "result": "significant reduction"}, {"measurement": "C5aR gene expression after OGD/R", "setting": "[18]", "result": "reverted C5aR gene expression to the control levels"}, {"measurement": "C5a protein level after OGD/R", "setting": "[19]", "result": "restored C5a protein level to not significant values compared to control"}, {"measurement": "TNF-α release after OGD/R", "setting": "[20]", "result": "restoration of control conditions"}, {"measurement": "IL-1β release after OGD/R", "setting": "[21]", "result": "restoration of control conditions"}, {"measurement": "miR-181a over-expression after OGD/R", "setting": "[22]", "result": "completely attenuated"}, {"measurement": "Plasma Cmax", "setting": "[23]", "result": "104,683 ± 8867 ng/mL"}, {"measurement": "Kp (brain to plasma ratio)", "setting": "[23]; 2 h", "result": 0.04}, {"measurement": "Kpuu (unbound brain to plasma ratio)", "setting": "[23]; 2 h", "result": 0.44}, {"measurement": "Mortality compared to the control", "setting": "[24]; 10 nM to 5 μM, 24 h, MTS", "result": "no significant mortality"}, {"measurement": "Viability changes on longer treatment", "setting": "[24]; 500 nM, 24, 48, and 72 h", "result": "without significant viability changes"}]}
